Test results as given in patent US12539292B2, “BRM targeting compounds and associated methods of use” (Arvinas Operations, Inc., priority 2018, dated 2026).
Where two headings read alike, the source gives them in different places.

Molecular target: T1, BRM (Homo sapiens, UniProt P51531)
T1 construct: In-Cell Western Screen of BRM Degradation in SW1573 Cells; endogenous in cells; host or cells: SW1573
Test: In-cell Western screen of BRM degradation in SW1573 cells (Dmax and DC50)
Format: cell-based
In short: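 SW1573 cells were treated with compound overnight (18-20 h; final DMSO 0.1%), then fixed in 4% PFA, permeabilized with Triton X-100 and blocked. BRM was detected by in-cell Western using 800 nm anti-rabbit and 680 nm anti-mouse secondaries, and Dmax and DC50 were derived from the LI-COR Odyssey signal.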

[1] = BRM degradation, SW1573 cells, read-out: DC50
[2] = BRM degradation, SW1573 cells, read-out: Dmax (% degraded)
[3] = BRM degradation, SW1573 cells, Table 2D, read-out: **Dmax (%) (% degraded)
[4] = BRM degradation, SW1573 cells, Table 2D, read-out: *DC50
[5] = degradation of BRM, read-out: BRM DC50
[6] = BRM degradation, SW1573 cells, when tested at the top concentration of between 0.3 and 10 μM, read-out: Dmax (%) (% degraded)

T1 sequence (P51531 whole entry): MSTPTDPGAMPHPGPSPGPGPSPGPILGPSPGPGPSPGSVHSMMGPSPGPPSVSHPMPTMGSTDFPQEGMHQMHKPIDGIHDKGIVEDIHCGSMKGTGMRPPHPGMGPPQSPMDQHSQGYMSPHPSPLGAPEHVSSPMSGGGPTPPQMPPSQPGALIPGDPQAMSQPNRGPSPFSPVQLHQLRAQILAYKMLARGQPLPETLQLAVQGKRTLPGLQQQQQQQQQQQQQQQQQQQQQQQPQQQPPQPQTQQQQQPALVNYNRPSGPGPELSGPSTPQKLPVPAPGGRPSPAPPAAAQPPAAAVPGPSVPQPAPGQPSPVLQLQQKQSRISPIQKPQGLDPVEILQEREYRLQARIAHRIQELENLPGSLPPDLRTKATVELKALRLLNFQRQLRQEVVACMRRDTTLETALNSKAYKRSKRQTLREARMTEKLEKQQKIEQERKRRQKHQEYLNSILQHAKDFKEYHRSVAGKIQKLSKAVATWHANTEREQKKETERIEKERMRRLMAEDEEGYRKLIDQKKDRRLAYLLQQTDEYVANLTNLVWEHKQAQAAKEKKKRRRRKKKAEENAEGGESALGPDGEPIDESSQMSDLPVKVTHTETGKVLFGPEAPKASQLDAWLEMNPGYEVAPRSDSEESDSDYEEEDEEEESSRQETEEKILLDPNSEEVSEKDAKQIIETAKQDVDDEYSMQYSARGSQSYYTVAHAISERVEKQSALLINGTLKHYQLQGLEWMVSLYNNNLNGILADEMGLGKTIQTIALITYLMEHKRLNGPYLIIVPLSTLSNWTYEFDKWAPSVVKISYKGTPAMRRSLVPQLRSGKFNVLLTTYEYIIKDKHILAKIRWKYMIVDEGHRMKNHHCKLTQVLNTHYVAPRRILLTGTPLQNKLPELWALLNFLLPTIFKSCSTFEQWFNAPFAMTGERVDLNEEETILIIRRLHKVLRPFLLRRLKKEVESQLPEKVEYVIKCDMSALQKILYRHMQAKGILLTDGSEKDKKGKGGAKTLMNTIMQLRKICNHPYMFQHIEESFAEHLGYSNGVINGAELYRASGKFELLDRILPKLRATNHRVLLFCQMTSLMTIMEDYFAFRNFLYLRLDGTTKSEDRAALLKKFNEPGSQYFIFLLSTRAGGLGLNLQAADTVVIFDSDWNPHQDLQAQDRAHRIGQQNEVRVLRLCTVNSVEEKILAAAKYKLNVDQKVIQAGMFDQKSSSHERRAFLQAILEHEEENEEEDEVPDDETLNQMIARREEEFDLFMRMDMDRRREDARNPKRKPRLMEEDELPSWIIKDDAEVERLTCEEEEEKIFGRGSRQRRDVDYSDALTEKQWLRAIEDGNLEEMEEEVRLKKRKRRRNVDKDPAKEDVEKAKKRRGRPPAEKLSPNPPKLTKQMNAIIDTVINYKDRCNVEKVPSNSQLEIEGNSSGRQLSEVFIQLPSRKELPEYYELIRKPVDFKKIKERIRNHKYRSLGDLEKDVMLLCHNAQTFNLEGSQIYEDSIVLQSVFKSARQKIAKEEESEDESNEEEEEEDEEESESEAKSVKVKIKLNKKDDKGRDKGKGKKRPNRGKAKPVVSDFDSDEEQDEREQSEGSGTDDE

**Q.** With `Cc1ncsc1-c1ccc([C@@H](CCO)NC(=O)[C@@H]2C[C@@H](O)CN2C(=O)[C@@H](c2cc(N3CCC(CN4CCC(O[C@H]5C[C@H](Oc6cc(N7C8CCC7CN(c7cc(-c9ccccc9O)nnc7N)C8)ccn6)C5)CC4)CC3)no2)C(C)C)cc1` [compound 662, (2S,4R)-1-((2R)-2-(3-(4-((4-((1r,3r)-3-((4-(3-(3-amino-6-(2-hydroxyphenyl)pyridazin-4-yl)-3,8-diazabicyclo[3.2.1]octan-8-yl)pyridin-2-yl)oxy)cyclobutoxy)piperidin-1-yl)methyl)piperidin-1-yl)isoxazol-5-yl)-3-methylbutanoyl)-4-hydroxy-N-((R)-3-hydroxy-1-(4-(4-methylthiazol-5-yl)phenyl)propyl)pyrrolidine-2-carboxamide] as the compound, how does the DC50 [1] read?
**A.** 2.5 to 10 nM

**Q.** And the Dmax [2]?
**A.** > 75%

**Q.** How did the Dmax [3] turn out when `Cc1ncsc1-c1cnc([C@H](C)NC(=O)[C@@H]2C[C@@H](O)CN2C(=O)[C@@H](c2cc(N3CCC(CN4CCC(O[C@H]5C[C@H](Oc6cc(N7C8CCC7CN(c7cc(-c9ccccc9O)nnc7N)C8)ccn6)C5)CC4)CC3)no2)C(C)C)cn1` [compound 590, (2S,4R)-1-((2R)-2-(3-(4-((4-((1r,3r)-3-((4-(3-(3-amino-6-(2-hydroxyphenyl)pyridazin-4-yl)-3,8-diazabicyclo[3.2.1]octan-8-yl)pyridin-2-yl)oxy)cyclobutoxy)piperidin-1-yl)methyl)piperidin-1-yl)isoxazol-5-yl)-3-methylbutanoyl)-4-hydroxy-N-((S)-1-(5-(4-methylthiazol-5-yl)pyrazin-2-yl)ethyl)pyrrolidine-2-carboxamide] was run?
**A.** > 75%

**Q.** And the DC50 [4]?
**A.** < 2.5 nM

**Q.** For `Cc1ncsc1-c1ccc([C@H](C)NC(=O)[C@@H]2C[C@@H](O)CN2C(=O)[C@@H](c2cc(OCCC3CCN(C[C@H]4C[C@H](Oc5cc(N6C7CCC6CN(c6cc(-c8ccccc8O)nnc6N)C7)ccn5)C4)CC3)no2)C(C)C)cc1` [compound 417, (2S,4R)-1-((2R)-2-(3-(2-(1-(((1r,3R)-3-((4-(3-(3-amino-6-(2-hydroxyphenyl)pyridazin-4-yl)-3,8-diazabicyclo[3.2.1]octan-8-yl)pyridin-2-yl)oxy)cyclobutyl)methyl)piperidin-4-yl)ethoxy)isoxazol-5-yl)-3-methylbutanoyl)-4-hydroxy-N-((S)-1-(4-(4-methylthiazol-5-yl)phenyl)ethyl)pyrrolidine-2-carboxamide], which Dmax (SW1573, % degraded, when tested at the top concentration of between 0.3 and 10 μM, read-out: BRM Dmax (%)) is on record?
**A.** > 75%

**Q.** What about the DC50 [5] of the same compound?
**A.** < 2.5 nM

**Q.** Which Dmax [3] does the source give for `CC(C)[C@@H](C(=O)N1C[C@H](O)C[C@H]1C(=O)N[C@@H](C)c1ccc(-n2ccnc2N)cc1)c1cc(N2CCC(CN3CCC(O[C@H]4C[C@H](Oc5cc(N6C7CCC6CN(c6cc(-c8ccccc8O)nnc6N)C7)ccn5)C4)CC3)CC2)no1` [compound 621, (2S,4R)-N-((S)-1-(4-(2-amino-1H-imidazol-1-yl)phenyl)ethyl)-1-((2R)-2-(3-(4-((4-((1r,3r)-3-((4-(3-(3-amino-6-(2-hydroxyphenyl)pyridazin-4-yl)-3,8-diazabicyclo[3.2.1]octan-8-yl)pyridin-2-yl)oxy)cyclobutoxy)piperidin-1-yl)methyl)piperidin-1-yl)isoxazol-5-yl)-3-methylbutanoyl)-4-hydroxypyrrolidine-2-carboxamide] here?
**A.** > 75%

**Q.** What about the DC50 [4] of the same compound?
**A.** < 2.5 nM

**Q.** `Cc1ncsc1-c1ccc([C@H](C)NC(=O)[C@@H]2C[C@@H](O)CN2C(=O)[C@H](c2cc(OCCN3CCN(CCO[C@H]4C[C@H](Oc5cc(N6C7CCC6CN(c6cc(-c8ccccc8O)nnc6N)C7)ccn5)C4)CC3)no2)C(C)C)cc1` [compound 407, (2S,4R)-1-((2S)-2-(3-(2-(4-(2-((1r,3r)-3-((4-(3-(3-amino-6-(2-hydroxyphenyl)pyridazin-4-yl)-3,8-diazabicyclo[3.2.1]octan-8-yl)pyridin-2-yl)oxy)cyclobutoxy)ethyl)piperazin-1-yl)ethoxy)isoxazol-5-yl)-3-methylbutanoyl)-4-hydroxy-N-((S)-1-(4-(4-methylthiazol-5-yl)phenyl)ethyl)pyrrolidine-2-carboxamide] was tested. Which DC50 [5] did it give?
**A.** > 30 nM

**Q.** For `Cc1ncsc1-c1ccc(CNC(=O)[C@@H]2C[C@@H](O)CN2C(=O)[C@@H](NC(=O)COCCOCCOCCOCCOCCOCCOCCOc2cc(N3C4CCC3CN(c3cc(-c5ccccc5O)nnc3N)C4)ccn2)C(C)(C)C)cc1` [compound 10, (2S,4R)-1-((2S)-26-((4-(3-(3-amino-6-(2-hydroxyphenyl)pyridazin-4-yl)-3,8-diazabicyclo[3.2.1]octan-8-yl)pyridin-2-yl)oxy)-2-(tert-butyl)-4-oxo-6,9,12,15,18,21,24-heptaoxa-3-azahexacosanoyl)-4-hydroxy-N-(4-(4-methylthiazol-5-yl)benzyl)pyrrolidine-2-carboxamide], which DC50 [1] is on record?
**A.** 2.5 to 10 nM

**Q.** And the Dmax [6]?
**A.** > 75%

**Q.** How did the DC50 [1] turn out when `Cc1ncsc1-c1ccc([C@H](C)NC(=O)[C@@H]2C[C@@H](O)CN2C(=O)[C@H](c2cc(OCCCc3ccc(C(C)n4cc(-c5cc(-c6ccccc6O)nnc5N)cn4)cc3)no2)C(C)C)cc1` (stereo partly drawn) [compound 59, (2S,4R)-1-((2S)-2-(3-(3-(4-(1-(4-(3-amino-6-(2-hydroxyphenyl)pyridazin-4-yl)-1H-pyrazol-1-yl)ethyl)phenyl)propoxy)isoxazol-5-yl)-3-methylbutanoyl)-4-hydroxy-N-((S)-1-(4-(4-methylthiazol-5-yl)phenyl)ethyl)pyrrolidine-2-carboxamide] was run?
**A.** > 30 nM

**Q.** What about the Dmax [6] of the same compound?
**A.** > 75%

**Q.** Which DC50 [1] does the source give for `COc1cc(C(C(=O)N2C[C@H](O)C[C@H]2C(=O)N[C@@H](C)c2ccc(-c3scnc3C)cc2)C(C)CC(=O)N(C)CCOc2cc(N3C4CCC3CN(c3cc(-c5ccccc5O)nnc3N)C4)ccn2)on1` (stereo partly drawn) [compound 289, (2S,4R)-1-(5-((2-((4-(3-(3-amino-6-(2-hydroxyphenyl)pyridazin-4-yl)-3,8-diazabicyclo[3.2.1]octan-8-yl)pyridin-2-yl)oxy)ethyl)(methyl)amino)-2-(3-methoxyisoxazol-5-yl)-3-methyl-5-oxopentanoyl)-4-hydroxy-N-((S)-1-(4-(4-methylthiazol-5-yl)phenyl)ethyl)pyrrolidine-2-carboxamide] here?
**A.** > 30 nM

**Q.** For `Cc1ncsc1-c1ccc([C@H](C)NC(=O)[C@@H]2C[C@@H](O)CN2C(=O)[C@H](c2cc(N3CC(COCCOc4cc(N5C6CCC5CN(c5cc(-c7ccccc7O)nnc5N)C6)ccn4)C3)no2)C(C)C)cc1` [compound 549, (2S,4R)-1-((2S)-2-(3-(3-((2-((4-(3-(3-amino-6-(2-hydroxyphenyl)pyridazin-4-yl)-3,8-diazabicyclo[3.2.1]octan-8-yl)pyridin-2-yl)oxy)ethoxy)methyl)azetidin-1-yl)isoxazol-5-yl)-3-methylbutanoyl)-4-hydroxy-N-((S)-1-(4-(4-methylthiazol-5-yl)phenyl)ethyl)pyrrolidine-2-carboxamide], which DC50 [4] is on record?
**A.** > 30 nM

**Q.** With `CC(C)[C@@H](C(=O)N1C[C@H](O)C[C@H]1C(=O)N[C@@H](C)c1ccc(-c2ccnn2C)cc1)c1cc(N2CCC(CN3CCC(O[C@H]4C[C@H](Oc5cc(N6C7CCC6CN(c6cc(-c8ccccc8O)nnc6N)C7)ccn5)C4)CC3)CC2)no1` [compound 622, (2S,4R)-1-((2R)-2-(3-(4-((4-((1r,3r)-3-((4-(3-(3-amino-6-(2-hydroxyphenyl)pyridazin-4-yl)-3,8-diazabicyclo[3.2.1]octan-8-yl)pyridin-2-yl)oxy)cyclobutoxy)piperidin-1-yl)methyl)piperidin-1-yl)isoxazol-5-yl)-3-methylbutanoyl)-4-hydroxy-N-((S)-1-(4-(1-methyl-1H-pyrazol-5-yl)phenyl)ethyl)pyrrolidine-2-carboxamide] as the compound, how does the Dmax [3] read?
**A.** > 75%

**Q.** What about the DC50 [4] of the same compound?
**A.** < 2.5 nM

**Q.** With `Cc1cnn(C)c1-c1ccc([C@H](C)NC(=O)[C@@H]2C[C@@H](O)CN2C(=O)[C@@H](c2cc(OCCN3CCC(O[C@H]4C[C@H](Oc5cc(N6C7CCC6CN(c6cc(-c8ccccc8O)nnc6N)C7)ccn5)C4)CC3)no2)C(C)C)cc1` [compound 295, (2S,4R)-1-((2R)-2-(3-(2-(4-((1r,3R)-3-((4-(3-(3-amino-6-(2-hydroxyphenyl)pyridazin-4-yl)-3,8-diazabicyclo[3.2.1]octan-8-yl)pyridin-2-yl)oxy)cyclobutoxy)piperidin-1-yl)ethoxy)isoxazol-5-yl)-3-methylbutanoyl)-N-((S)-1-(4-(1,4-dimethyl-1H-pyrazol-5-yl)phenyl)ethyl)-4-hydroxypyrrolidine-2-carboxamide] as the compound, how does the DC50 [1] read?
**A.** < 2.5 nM

**Q.** What about the Dmax (BRM degradation, SW1573 cells, tested at the top concentration of between 0.3 and 10 μM, read-out: Dmax (%) (% degraded)) of the same compound?
**A.** > 75%

**Q.** `Cc1ncsc1-c1ccc([C@H](C)NC(=O)[C@@H]2C[C@@H](O)CN2C(=O)[C@@H](c2cc(OCCN3CC[C@@H](O[C@H]4C[C@H](Oc5cc(N6C7CCC6CN(c6cc(-c8ccccc8O)nnc6N)C7)ccn5)C4)C[C@@H]3C)no2)C(C)C)cc1` [compound 627, (2S,4R)-1-((2R)-2-(3-(2-((2S,4R)-4-((1r,3R)-3-((4-(3-(3-amino-6-(2-hydroxyphenyl)pyridazin-4-yl)-3,8-diazabicyclo[3.2.1]octan-8-yl)pyridin-2-yl)oxy)cyclobutoxy)-2-methylpiperidin-1-yl)ethoxy)isoxazol-5-yl)-3-methylbutanoyl)-4-hydroxy-N-((S)-1-(4-(4-methylthiazol-5-yl)phenyl)ethyl)pyrrolidine-2-carboxamide] was tested. Which DC50 [1] did it give?
**A.** < 2.5 nM

**Q.** What about the Dmax [2] of the same compound?
**A.** > 75%
